Test results published in US20240287138A1, “CYCLIC PEPTIDES FOR INHIBITING TNF RECEPTOR 1 ACTIVITY” (Merck Sharp & Dohme LLC, priority 2023, published 2024).
Numbered stars: 1 amine (or outer) side, 2 acyl side, 3 side chain; on linkers, the order of the positions; unused ones are H or OH. Bridge positions count the residues as written; N and C are the ends. Square brackets hold non-standard residues; d marks the D form. Peptide text beside a SMILES is read from it. Trp(βS-Me,7-OMe) = COc1cccc2c([C@H](C)[C@H](N)C(=O)O)c[nH]c12; Trp(7-Cl) = N[C@@H](Cc1c[nH]c2c(Cl)cccc12)C(=O)O; Phe(3-COOH) = N[C@@H](Cc1cccc(C(=O)O)c1)C(=O)O; Phe(4-CONH2) = NC(=O)c1ccc(C[C@H](N)C(=O)O)cc1; Phe(4-COOH) = N[C@@H](Cc1ccc(C(=O)O)cc1)C(=O)O; Trp(7-aza) = N[C@@H](Cc1c[nH]c2ncccc12)C(=O)O; 3Pal(6-OMe) = COc1ccc(C[C@H](N)C(=O)O)cn1; Pip(5R-OH) = O=C(O)[C@@H]1CC[C@@H](O)CN1; X1 = O=C([C@@H]1CC[C@H](N[*:1])C1)[*:2]; Ala(2-furyl) = N[C@@H](Cc1ccco1)C(=O)O; Lys(Me2) = CN(C)CCCC[C@H](N)C(=O)O; Pip(4-aza) = O=C(O)[C@@H]1CNCCN1; 4Pal = N[C@@H](Cc1ccncc1)C(=O)O; NMeE = CN[C@@H](CCC(=O)O)C(=O)O; X33 = N#CCCN(CC(=O)[*:2])[*:1]; Pip = O=C(O)[C@@H]1CCCCN1; αMeS = C[C@](N)(CO)C(=O)O; Nle = CCCC[C@H](N)C(=O)O; Sar = CNCC(=O)O

How the values were obtained:
[1] = biological target: T1, human soluble TNFR1 (sTNFR1) (Homo sapiens, UniProt P19438); assay: Human sTNFR1-peptide displacement assay (LanthaScreen Eu TR-FRET binding assay)
T1 construct: made in house; host or cells: Sf21 (baculovirus)
T1 sequence (P19438 with tags, fused parts or gaps): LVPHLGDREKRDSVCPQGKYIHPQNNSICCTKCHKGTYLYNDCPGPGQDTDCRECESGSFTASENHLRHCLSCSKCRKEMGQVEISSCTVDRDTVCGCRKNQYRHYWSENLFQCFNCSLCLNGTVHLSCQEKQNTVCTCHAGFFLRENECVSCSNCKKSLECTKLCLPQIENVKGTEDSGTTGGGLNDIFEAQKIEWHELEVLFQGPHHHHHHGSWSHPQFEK
Outline: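 Readout is the 665/615 nm TR-FRET ratio (Eu anti-His donor, streptavidin-Alexa647 acceptor), normalized to DMSO and saturating displacer, fit by Morrison-based five-parameter logistic for Kd^app. His-tagged sTNFR1 (1-211) prebound to 100 nM biotinylated peptide SEQ ID NO.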

[2] = biological target: T2, TNFα-induced NF-κB signal transduction pathway (TNFR1 signaling) in THP-1 cells (Homo sapiens, UniProt P19438); assay: THP-1 Lucia NF-κB reporter cell assay, inhibition of TNFα-induced NF-κB signaling; assay type: cell-based; settings: THP-1 NF-κB Lucia reporter cells, 10 ng/mL TNFα, 16-18 h, secreted luciferase; read-out: THP-1 IC50
T2 sequence (P19438 30-455): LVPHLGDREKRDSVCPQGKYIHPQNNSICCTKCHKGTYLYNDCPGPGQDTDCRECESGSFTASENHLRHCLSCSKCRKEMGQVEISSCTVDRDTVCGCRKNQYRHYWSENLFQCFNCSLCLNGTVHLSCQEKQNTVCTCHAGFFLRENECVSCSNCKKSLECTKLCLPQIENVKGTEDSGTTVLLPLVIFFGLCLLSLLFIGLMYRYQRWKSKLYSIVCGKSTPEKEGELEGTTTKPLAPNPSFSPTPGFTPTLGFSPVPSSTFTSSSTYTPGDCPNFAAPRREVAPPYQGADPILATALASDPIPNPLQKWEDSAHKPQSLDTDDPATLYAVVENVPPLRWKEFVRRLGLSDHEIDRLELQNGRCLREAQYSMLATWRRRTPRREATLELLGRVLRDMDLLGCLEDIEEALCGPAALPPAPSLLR
Outline: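 Inhibition of TNFR1-driven NF-κB activation was measured as luminescence of secreted reporter luciferase following overnight (16-18 h) stimulation with 10 ng/mL TNFα.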

| Compound | IC50 [1] | Kd [1] | IC50 [2] |
| --- | --- | --- | --- |
| CCCC[C@@H]1NC(=O)CSC[C@@H](C(N)=O)NC(=O)[C@H]([C@@H](C)c2c[nH]c3c(OC)cccc23)NC(=O)CN(C)C(=O)[C@H](Cc2ccc(O)cc2)NC(=O)[C@H](Cc2ccc(C(=O)O)cc2)NC(=O)[C@](C)(CO)NC(=O)[C@H](Cc2c[nH]c3c(Cl)cccc23)NC(=O)[C@H](Cc2ccncc2)NC(=O)[C@H](CC(N)=O)NC(=O)CN(CCC#N)C(=O)[C@H](Cc2c[nH]c3ncccc23)NC(=O)[C@@H]2CCCCN2C(=O)[C@H](Cc2ccncc2)NC1=O [SEQ ID NO. 228] ({CH2CO}-[Nle][4Pal][Pip][Trp(7-aza)][X33]N[4Pal][Trp(7-Cl)][αMeS][Phe(4-COOH)]Y[Sar][Trp(βS-Me,7-OMe)]C-NH2; thioether N-14) | 0.7 nM | 0.64 nM | 4 nM |
| CCCC[C@@H]1NC(=O)CSC[C@@H](C(N)=O)NC(=O)[C@H]([C@@H](C)c2c[nH]c3c(OC)cccc23)NC(=O)CN(C)C(=O)[C@H](Cc2ccc(O)cc2)NC(=O)[C@H](Cc2ccc(C(=O)O)cc2)NC(=O)[C@](C)(CO)NC(=O)[C@H](Cc2c[nH]c3c(Cl)cccc23)NC(=O)[C@H](Cc2ccco2)NC(=O)[C@H](CC(N)=O)NC(=O)[C@H]2CCCN2C(=O)[C@H](Cc2c[nH]c3ccccc23)NC(=O)[C@@H]2CNCCN2C(=O)[C@H](Cc2ccncc2)NC1=O [SEQ ID NO. 236] ({CH2CO}-[Nle][4Pal][Pip(4-aza)]W[dP]N[Ala(2-furyl)][Trp(7-Cl)][αMeS][Phe(4-COOH)]Y[Sar][Trp(βS-Me,7-OMe)]C-NH2; thioether N-14) | 0.9 nM |  | 4.2 nM |
| COc1cccc2c([C@H](C)[C@@H]3NC(=O)CN(C)C(=O)[C@H](Cc4ccc(O)cc4)NC(=O)[C@H](Cc4ccc(C(N)=O)cc4)NC(=O)[C@](C)(CO)NC(=O)[C@H](Cc4c[nH]c5c(Cl)cccc45)NC(=O)[C@H](Cc4ccncc4)NC(=O)[C@H](CC(N)=O)NC(=O)[C@H](CCC(=O)O)N(C)C(=O)[C@H](Cc4c[nH]c5ccccc45)NC(=O)[C@@H]4CC[C@@H](O)CN4C(=O)[C@H](Cc4ccncc4)NC(=O)[C@H](CCCCN(C)C)NC(=O)[C@@H]4CC[C@@H](C4)NC3=O)c[nH]c12 [SEQ ID NO. 238] (cyclo([4Pal][Trp(7-Cl)][αMeS][Phe(4-CONH2)]Y[Sar][Trp(βS-Me,7-OMe)][X1][Lys(Me2)][4Pal][Pip(5R-OH)]W[NMeE]N)) |  | 0.12 nM | 0.7 nM |
| CCCC[C@@H]1NC(=O)[C@@H]2CC[C@@H](C2)NC(=O)[C@H]([C@@H](C)c2c[nH]c3c(OC)cccc23)NC(=O)CN(C)C(=O)[C@H](Cc2ccc(O)cc2)NC(=O)[C@H](Cc2ccc(C(=O)O)cc2)NC(=O)[C@](C)(CO)NC(=O)[C@H](Cc2c[nH]c3c(Cl)cccc23)NC(=O)[C@H](Cc2ccncc2)NC(=O)[C@H](CC(N)=O)NC(=O)[C@H](CCC(=O)O)N(C)C(=O)[C@H](Cc2c[nH]c3ccccc23)NC(=O)[C@@H]2CNCCN2C(=O)[C@H](Cc2ccc(OC)nc2)NC1=O [SEQ ID NO. 241] (cyclo([4Pal][Trp(7-Cl)][αMeS][Phe(4-COOH)]Y[Sar][Trp(βS-Me,7-OMe)][X1][Nle][3Pal(6-OMe)][Pip(4-aza)]W[NMeE]N)) |  | 0.24 nM | 1.4 nM |
| CCCC[C@@H]1NC(=O)CSC[C@@H](C(N)=O)NC(=O)[C@H]([C@@H](C)c2c[nH]c3c(OC)cccc23)NC(=O)CN(C)C(=O)[C@H](Cc2ccc(O)cc2)NC(=O)[C@H](Cc2cccc(C(=O)O)c2)NC(=O)[C@](C)(CO)NC(=O)[C@H](Cc2c[nH]c3c(Cl)cccc23)NC(=O)[C@H](Cc2ccncc2)NC(=O)[C@H](CC(N)=O)NC(=O)[C@H](CCC(=O)O)N(C)C(=O)[C@H](Cc2c[nH]c3ccccc23)NC(=O)[C@@H]2CNCCN2C(=O)[C@H](Cc2ccncc2)NC1=O [SEQ ID NO. 249] ({CH2CO}-[Nle][4Pal][Pip(4-aza)]W[NMeE]N[4Pal][Trp(7-Cl)][αMeS][Phe(3-COOH)]Y[Sar][Trp(βS-Me,7-OMe)]C-NH2; thioether N-14) | 1 nM |  | 4.4 nM |
